Results published in US11208412B2 (DAEGU-GYEONGBUK MEDICAL INNOVATION FOUNDATION, priority 2017, dated 2021).

Key:
Assay in all cases: Kinase selectivity, DiscoverX scanMAX Kinase assay panel (% control)
Assay type in all cases: binding
[1] = molecular target: T1, kinases of the scanMAX Kinase assay panel (Homo sapiens, UniProt Q9UEW8); settings: kinase STK39; 1 uM in DMSO
T1 construct: purchased DiscoverX Co. (contract measurement) scanMAX Kinase assay panel
Summary of the method: (§1)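 Read-out is % control, normalised so a positive-control compound sits at 0% and DMSO at 100%: (test − positive)/(negative − positive)×100. Each kinase received the compound at 1 uM in DMSO. A value below 35% counts as activity.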

[2] = molecular target: T2, kinases of the scanMAX Kinase assay panel (Homo sapiens, UniProt P36896); settings: ACVR1B; 1 uM
T2 construct: purchased DiscoverX Co. (contract measurement) scanMAX Kinase assay panel
T2 sequence (P36896 24-505): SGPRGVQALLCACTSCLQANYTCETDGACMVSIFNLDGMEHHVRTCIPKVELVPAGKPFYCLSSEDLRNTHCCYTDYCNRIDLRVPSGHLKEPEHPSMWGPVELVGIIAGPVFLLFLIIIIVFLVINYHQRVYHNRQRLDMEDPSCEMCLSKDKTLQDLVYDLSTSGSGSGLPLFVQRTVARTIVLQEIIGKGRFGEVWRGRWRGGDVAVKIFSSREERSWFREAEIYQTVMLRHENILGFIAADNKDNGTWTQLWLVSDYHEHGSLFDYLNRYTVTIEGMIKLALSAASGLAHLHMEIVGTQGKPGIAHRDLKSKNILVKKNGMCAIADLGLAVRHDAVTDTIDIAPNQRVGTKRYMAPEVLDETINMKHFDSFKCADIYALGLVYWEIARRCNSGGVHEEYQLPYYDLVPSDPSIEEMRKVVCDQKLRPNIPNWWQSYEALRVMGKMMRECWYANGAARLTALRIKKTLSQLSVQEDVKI
Summary of the method: as §1

[3] = molecular target: T3, kinases of the scanMAX Kinase assay panel (Homo sapiens, UniProt P42336); settings: PIK3CA; 1 uM
T3 construct: purchased DiscoverX Co. (contract measurement) scanMAX Kinase assay panel
Summary of the method: as §1

[4] = molecular target: T4, kinases of the scanMAX Kinase assay panel (Homo sapiens, UniProt Q8IYT8); settings: kinase ULK2; 1 uM in DMSO
T4 construct: purchased DiscoverX Co. (contract measurement) scanMAX Kinase assay panel
T4 sequence (Q8IYT8 1-1036): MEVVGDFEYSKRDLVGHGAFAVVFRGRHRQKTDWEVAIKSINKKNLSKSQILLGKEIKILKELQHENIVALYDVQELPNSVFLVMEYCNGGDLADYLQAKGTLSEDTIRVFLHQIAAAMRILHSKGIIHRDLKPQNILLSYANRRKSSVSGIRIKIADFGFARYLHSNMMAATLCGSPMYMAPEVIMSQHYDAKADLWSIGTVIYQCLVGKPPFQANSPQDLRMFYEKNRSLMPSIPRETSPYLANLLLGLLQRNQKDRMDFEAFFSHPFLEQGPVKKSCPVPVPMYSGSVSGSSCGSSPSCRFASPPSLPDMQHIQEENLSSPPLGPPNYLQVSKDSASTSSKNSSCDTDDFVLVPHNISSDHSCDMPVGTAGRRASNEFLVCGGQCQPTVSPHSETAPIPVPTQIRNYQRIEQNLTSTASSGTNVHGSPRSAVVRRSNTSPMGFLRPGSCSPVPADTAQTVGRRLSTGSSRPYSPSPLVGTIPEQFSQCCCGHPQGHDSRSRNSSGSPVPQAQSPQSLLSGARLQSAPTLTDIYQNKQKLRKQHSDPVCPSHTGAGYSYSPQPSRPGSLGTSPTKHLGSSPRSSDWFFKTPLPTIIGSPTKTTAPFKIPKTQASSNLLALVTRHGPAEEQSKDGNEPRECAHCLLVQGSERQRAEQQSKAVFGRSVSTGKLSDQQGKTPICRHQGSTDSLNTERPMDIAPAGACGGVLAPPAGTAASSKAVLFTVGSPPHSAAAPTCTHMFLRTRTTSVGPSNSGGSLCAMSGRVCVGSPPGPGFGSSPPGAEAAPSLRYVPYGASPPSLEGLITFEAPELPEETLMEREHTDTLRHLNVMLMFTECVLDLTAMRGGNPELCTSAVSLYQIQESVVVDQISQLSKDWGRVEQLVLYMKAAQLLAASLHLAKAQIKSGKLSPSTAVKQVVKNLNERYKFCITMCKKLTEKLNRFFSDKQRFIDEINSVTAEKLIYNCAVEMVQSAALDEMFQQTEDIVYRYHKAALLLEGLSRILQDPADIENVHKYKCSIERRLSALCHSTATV
Summary of the method: as §1

[5] = molecular target: T5, kinases of the scanMAX Kinase assay panel (Homo sapiens, UniProt Q16566); settings: CAMK4; 1 uM
T5 construct: purchased DiscoverX Co. (contract measurement) scanMAX Kinase assay panel
T5 sequence (Q16566 1-473): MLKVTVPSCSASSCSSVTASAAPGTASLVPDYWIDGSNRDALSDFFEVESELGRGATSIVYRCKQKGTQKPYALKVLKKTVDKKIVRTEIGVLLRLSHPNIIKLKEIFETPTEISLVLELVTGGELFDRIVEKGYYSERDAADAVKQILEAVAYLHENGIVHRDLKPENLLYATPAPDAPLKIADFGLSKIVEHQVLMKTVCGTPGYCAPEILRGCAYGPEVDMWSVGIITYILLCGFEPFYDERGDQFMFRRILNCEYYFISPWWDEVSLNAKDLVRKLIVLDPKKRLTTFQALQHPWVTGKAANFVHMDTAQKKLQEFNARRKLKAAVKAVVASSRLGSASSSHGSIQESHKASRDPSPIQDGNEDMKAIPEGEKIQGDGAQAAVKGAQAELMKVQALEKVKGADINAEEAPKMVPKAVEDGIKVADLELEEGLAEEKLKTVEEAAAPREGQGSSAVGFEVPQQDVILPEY
Summary of the method: as §1

T3 sequence (P42336 whole entry): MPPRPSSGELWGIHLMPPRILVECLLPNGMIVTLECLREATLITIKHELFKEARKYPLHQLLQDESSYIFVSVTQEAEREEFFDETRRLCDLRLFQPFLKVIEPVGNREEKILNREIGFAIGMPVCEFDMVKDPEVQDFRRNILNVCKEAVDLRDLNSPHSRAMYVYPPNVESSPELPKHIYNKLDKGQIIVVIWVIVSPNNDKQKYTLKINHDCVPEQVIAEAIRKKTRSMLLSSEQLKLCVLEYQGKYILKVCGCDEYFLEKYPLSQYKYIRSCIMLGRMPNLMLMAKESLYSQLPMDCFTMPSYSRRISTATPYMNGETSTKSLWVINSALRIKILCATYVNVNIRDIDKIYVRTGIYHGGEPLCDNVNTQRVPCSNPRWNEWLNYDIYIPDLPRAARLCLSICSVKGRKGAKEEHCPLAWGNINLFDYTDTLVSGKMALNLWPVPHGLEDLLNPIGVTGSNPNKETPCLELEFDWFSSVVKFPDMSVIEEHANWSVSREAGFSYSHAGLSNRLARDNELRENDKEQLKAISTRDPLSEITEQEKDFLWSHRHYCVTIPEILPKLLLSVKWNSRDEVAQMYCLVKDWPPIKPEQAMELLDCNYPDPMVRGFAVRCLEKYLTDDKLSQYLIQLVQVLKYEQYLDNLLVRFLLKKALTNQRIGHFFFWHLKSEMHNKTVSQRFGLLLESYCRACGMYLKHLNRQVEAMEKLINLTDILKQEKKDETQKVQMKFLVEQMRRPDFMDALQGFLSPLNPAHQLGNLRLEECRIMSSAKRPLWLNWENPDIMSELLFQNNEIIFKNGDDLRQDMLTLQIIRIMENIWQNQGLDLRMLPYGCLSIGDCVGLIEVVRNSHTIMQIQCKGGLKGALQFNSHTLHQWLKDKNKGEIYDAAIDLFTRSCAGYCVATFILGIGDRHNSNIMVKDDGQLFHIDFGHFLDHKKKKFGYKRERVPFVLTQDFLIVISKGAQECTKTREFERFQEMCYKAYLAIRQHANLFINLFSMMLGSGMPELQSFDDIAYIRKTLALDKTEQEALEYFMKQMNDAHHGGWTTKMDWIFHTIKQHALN

Row | Structure (SMILES) | remaining binding at 1 µM [1] | remaining binding at 1 µM [2] | remaining binding at 1 µM [3] | remaining binding at 1 µM [4] | remaining binding at 1 µM [5]
1 | CNc1nc(Nc2ccc(C(=O)N3CCOCC3)cc2OC)nc2[nH]cc(C#N)c12 [Example 1, 2-((2-methoxy-4-(morpholine-4-carbonyl)phenyl)amino)-4-(methylamino)-7H-pyrrolo[2,3-d]pyrimidine-5-carbonitrile] | 14% | 86% | 87% | 75% | 99%
2 | CC1(Nc2nc(Nc3cnn([C@H]4CCN(C5COC5)C[C@@H]4F)c3Cl)nc3[nH]cc(C#N)c23)CC1 [Example 52, 2-((5-chloro-1-((3S,4S)-3-fluoro-1-(oxetane-3-yl)piperidine-4-yl)-1H-pyrazole-4-yl)amino)((1-methylcyclopropyl)amino)-7H-pyrrolo[2,3-d]pyrimidine-5-carbonitrile] | 0% | 92% | 60% | 15% | 55%
3 | CCNc1nc(Nc2ccc(C(=O)N3CCC(N4CCOCC4)CC3)cc2OC)nc2[nH]cc(C(F)(F)F)c12 [Example 104, (4-((4-(ethylamino)-5-(trifluoromethyl)-7H-pyrrolo[2,3-d]pyrimidine-2-yl)amino)-3-methoxyphenyl)(4-morpholinopiperidine-1-yl)methanone] | 30% | 100% | 99% | 100% | 27%
